# According to US20080171784A1, “Methods For the Stabilization of Atorvastatin” (ZENTIVA, A.S., priority 2003, published 2008):
# Counter-ions that a name gives are not always drawn.
# Legend:
# Type in all cases: physicochemical
# [1] = Oxidation of 1% atorvastatin solution in ethyl acetate-acetonitrile (1:1) at 40° C.
# Experimental: In order to precisely determine the decomposition mechanism, the following experiments examining only the oxidative decomposition of atorvastatin were carried out. A recent publication/Pharmaceutical Development and Technology, 7(1), 1-32 (2002)/described a set of experiments which are suitable for the recognition of oxidation of substances and for the determination of its mechanism.
# The following experiments were carried out:
# a. oxidation of a 1% solution of atorvastatin in the system of ethyl acetate-acetonitrile (1:1) at 40° C. using a radical initiator (2,2′-azobiscyanopentanoic acid) at a pressure of 1 MPa of oxygen; b. oxidation of a 1% solution of atorvastatin in the system of ethyl acetate-acetonitrile (1:1) at 40° C. without a radical initiator; c. control experiment in the system of ethyl acetate-acetonitrile (1:1) at 40° C. using a radical initiator (2,2′-azobiscyanopentanoic acid) in an inert atmosphere of argon (the partial pressure of oxygen found as being about 1 kPa).
# [2] = Set of stress tests of atorvastatin (HPLC)
# Experimental: The following experiments were carried out in order to determine the instability of atorvastatin. The purpose was to find out which factors lead to the degradation of the product. • 1. Set of stress tests. The stock solution of atorvastatin (2 ml) was gradually subjected to the following experiments: a. boil (24 hr) with 2 ml of 0.2 N hydrochloric acid, b. boil (24 hr) with 2 ml of 0.2 N acetic acid, c. boil (24 hr) with 2 ml of 0.2 N sodium hydroxide, d. boil (24 hr) with 2 ml of 4% hydrogen peroxide, e. boil (24 hr) with 2 ml of water, f. irradiation with UV radiation (5 hr), g. irradiation with visible light (24 hr), h. solid substance heated at 100° C. for 24 hr, i. solid substance subjected to UV radiation (5 hr), j. solid substance subjected to visible light (24 hr).
# [3] = Example 7: test of stability under reduced pressure
# Experimental: A pure amorphous atorvastatin substance was close din a tempered box under air pressure of 5.5-7.5 kPa. The partial pressure of oxygen was estimated as 1.2-1.5 kPa
# The measurement has given the following results:
# For comparison, sample 0010903/18 was kept in a thermostat at 80° C. under normal atmospheric pressure, i.e. partial pressure of oxygen about 18 kPa for 160 hours.
# [4] = Example 2: amorphous atorvastatin sealed in aluminium foil with oxygen absorbers, 40° C., 1.5 months (HPLC)
# Experimental: (§1) Amorphous atorvastatin (1 g) was sealed in a sealable aluminium foil together with the oxygen absorber Ageless® Z100 (Mitsubishi) or with the absorber of oxygen and carbon dioxide Ageless® E100 (Mitsubishi) and the sample was heated at 40° C. for 1.5 months. The reference sample was prepared and heated in the same way without the use of absorbers.
# [5] = Stability tests of solid amorphous atorvastatin in different packages and oxygen partial pressures
# Experimental: In order to make the carried-out experiments more precise, stability tests of solid amorphous atorvastatin and of several selected dosage forms were established. As to containers, polyethylene (PE) and an aluminium foil with a sealable PE layer (Al+PE) were used. Some of the stability data were determined in nitrogen atmosphere (N2) (with a partial pressure of oxygen of roughly 3 kPa).
# [6] = Example 1: amorphous atorvastatin sealed in aluminium foil with oxygen absorbers, 80° C., 72 hr (HPLC)
# Experimental: as §1, with “80°” for “40°”, “72 hr.” for “1.5 months.”
# [7] = 40° C., 1.5 months, oxygen absorber Ageless Z100
# [8] = 40° C., 1.5 months, oxygen and carbon dioxide absorber Ageless E100
# [9] = 40° C., 1.5 months, reference sample without absorbers
# [10] = 80° C., 72 hr, oxygen absorber Ageless Z100
# [11] = 80° C., 72 hr, oxygen and carbon dioxide absorber Ageless E100
# [12] = 80° C., 72 hr, reference sample without absorbers
molecule,measurement,setting,value
"CC(C)c1c(C(=O)Nc2ccccc2)c(-c2ccccc2)c(-c2ccc(F)cc2)n1CC[C@@H](O)C[C@@H](O)CC(=O)O [atorvastatin, hemicalcium salt of (3R,5R) 7-[3-phenyl-4-phenylcarbamoyl-2-(4-fluorophenyl)-5-isopropylpyrrol-1-yl]-3,5-dihydroxyheptanoic acid]",Impurities,"[1]; 0 hours, entry sample",0.49%
same,Impurities,"[1]; 24 hours, radical initiator no, PO 1 MPa, 40° C.",9.27%
same,Impurities,"[1]; 24 hours, radical initiator yes, PO 0.001 MPa (argon), 40° C.",0.98%
same,Impurities,"[1]; 24 hours, radical initiator yes, PO 1 MPa, 40° C.",6.42%
same,Impurities,"[1]; 48 hours, radical initiator yes, PO 0.001 MPa (argon), 40° C.",1.38%
same,Impurities,"[1]; 48 hours, radical initiator yes, PO 1 MPa, 40° C.",24.37%
same,Impurities,"[1]; 72 hours, radical initiator yes, PO 1 MPa, 40° C.",30.93%
same,Content of Atorvastatin,[2]; 5 hr under UV in water,64.3%
same,Content of Atorvastatin,"[2]; solid substance 5 hr, UV",99.3%
same,Content of Atorvastatin,"[2]; solid substance 24 hr, 100° C.",96.3%
same,Content of Atorvastatin,"[2]; solid substance 24 hr, visible light",96.5%
same,Content of Atorvastatin,"[2]; solution, 24 hr in the light (visible)",104.5%
same,Content of Atorvastatin,"[2]; stock solution, 24 hr boil in 0.1 N AcOH",83.2%
same,Content of Atorvastatin,"[2]; stock solution, 24 hr boil in 0.1 N HCl",2.1%
same,Content of Atorvastatin,"[2]; stock solution, 24 hr boil in 0.1 N NaOH",72.0%
same,Content of Atorvastatin,"[2]; stock solution, 24 hr boil in 2% H2O2",54.8%
same,Content of Atorvastatin,"[2]; stock solution, 24 hr boil in water",88.4%
"hemicalcium salt of (3R,5R) 7-[3-phenyl-4-phenylcarbamoyl-2-(4-fluorophenyl)-5-isopropylpyrrol-1-yl]-3,5-dihydroxyheptanoic acid [amorphous atorvastatin]",Total Impurities,"[3]; air pressure 5.5-7.5 kPa (PO 1.2-1.5 kPa), 55 hrs, 60-65 ° C.",0.33%
same,Total Impurities,"[3]; air pressure 5.5-7.5 kPa (PO 1.2-1.5 kPa), 160 hrs, 80-82 ° C.",0.37%
same,Total Impurities,"[3]; air pressure 5.5-7.5 kPa (PO 1.2-1.5 kPa), 23 days, 20-25 ° C.",0.29%
same,Total Impurities,"[3]; air pressure 5.5-7.5 kPa (PO 1.2-1.5 kPa), 42 days, 40-42 ° C.",0.35%
same,Total Impurities,"[3]; normal atmospheric pressure, PO about 18 kPa, 80° C., 160 hours",1.92%
same,Lactone of Atorvastatin,[4]; [7],0%
same,Total Impurities,[4]; [7],0.36%
same,Lactone of Atorvastatin,[4]; [8],0.06%
same,Total Impurities,[4]; [8],0.46%
same,Lactone of Atorvastatin,[4]; [9],0.22%
same,Total Impurities,[4]; [9],1.55%
same,Lactone of Atorvastatin,[4]; Initial,0%
same,Total Impurities,[4]; Initial,0.49%
same,Impurities,"[5]; 0 months, entry",0.21%
same,Impurities,"[5]; 3 months, 5 ° C., package 2x RE, PO 18 kPa",0.39%
same,Impurities,"[5]; 3 months, 5 ° C., package PE + Al, PO 3 kPa (N2)",0.34%
same,Impurities,"[5]; 3 months, 5 ° C., package PE + Al, PO 18 kPa",0.34%
same,Impurities,"[5]; 3 months, 25 ° C., package 2x PE, PO 18 kPa",0.77%
same,Impurities,"[5]; 3 months, 25 ° C., package PE + Al, PO 3 kPa (N2)",0.43%
same,Impurities,"[5]; 3 months, 25 ° C., package PE + Al, PO 18 kPa",0.63%
same,Impurities,"[5]; 6 months, 5 ° C., package 2x PE, PO 18 kPa",0.83%
same,Impurities,"[5]; 6 months, 5 ° C., package PE + Al, PO 3 kPa (N2)",0.44%
same,Impurities,"[5]; 6 months, 5 ° C., package PE + Al, PO 18 kPa",0.71%
same,Lactone of Atorvastatin,[6]; [10],0.19%
same,Total Impurities,[6]; [10],0.64%
same,Lactone of Atorvastatin,[6]; [11],0.14%
same,Total Impurities,[6]; [11],0.60%
same,Lactone of Atorvastatin,[6]; [12],0.33%
same,Total Impurities,[6]; [12],1.32%
same,Lactone of Atorvastatin,[6]; Initial,0%
same,Total Impurities,[6]; Initial,0.49%
